One assay concerns the target T1, hNPFF1 (Homo sapiens, UniProt Q9GZQ6).
T1 construct: The cDNA encoding the full-length human NPFFR1 and human NPFFR2; expressed in transfected cells
The assay can be described thus: Receptor binding assay with [3H]-FFRFamide on CHO cell membranes expressing SF-hNPFFR1. As to conditions: [3H]-FFRF-NH2 radioligand, mean of at least two experiments; for Ki: read-out: Ki NPFF1. The text has this: (§1) The cDNA encoding the full-length human NPFFR1 and human NPFFR2 were subcloned into the pcDNA3 expression vector (Invitrogen, Cergy Pontoise, France) using standard molecular biology methods. A sequence encoding a signal sequence and a Flag epitope was fused to the 5' coding sequence of both hNPFFR1 and hNPFFR2 cDNA according to (Guan et al., 1992) resulting in a SF-hNPFFR1 and SF-hNPFFR2 constructs. These contructs were stably transfected into CHO cells.
(§2) Membranes from CHO cells stably expressing SF-hNPFFR1 or SF-hNPFFR2 were prepared as described (Becker et al., 1999). SF-hNPFFR1 or SF-hNPFFR2 membranes (10µg) were incubated for 30 min at 25 °C in a final volume of 0.5 ml containing 50 mM HEPES pH 7.4, 1 mM CaCl2, 1 mM MgCl2, 0.1% bovine serum albumin, 10 nM and 3 nM [^3H]-FFRFamide (CEA, Paris; specific activity, 13,6 Ci/mmol) for […], respectively and the ligands to be tested. Non-specific binding was determined in presence of 1 µM neuropeptide FF for SF-hNPFFR2 and 1 µM neuropeptide VF for SF -hNPFFR1. Typical total and nonspecific binding were 1200 and 200 dpm, respectively for SF-hNPFFR1 and SF-hNPFFR2. Incubation mixtures were rapidly filtered and washed with 50 mM HEPES pH 7.4, 1 mM CaCl2, 1 mM MgCl2, on 96 wells GF/B unifilter (Perkin Elmer). Unifilter plates where then dryied for 1hr at 65°C. Bound radioactivity was determined by scintillation counting with 30 µl of scintillation cocktail (O-scint, Perkin Elmer) per well on a Topcount scintillation apparatus (Perkin Elmer).

For a further assay, the target named is T2, hNPFF2 (Homo sapiens, UniProt Q9Y5X5).
T2 construct: The cDNA encoding the full-length human NPFFR1 and human NPFFR2; expressed in transfected cells
T2 sequence (Q9Y5X5 whole entry): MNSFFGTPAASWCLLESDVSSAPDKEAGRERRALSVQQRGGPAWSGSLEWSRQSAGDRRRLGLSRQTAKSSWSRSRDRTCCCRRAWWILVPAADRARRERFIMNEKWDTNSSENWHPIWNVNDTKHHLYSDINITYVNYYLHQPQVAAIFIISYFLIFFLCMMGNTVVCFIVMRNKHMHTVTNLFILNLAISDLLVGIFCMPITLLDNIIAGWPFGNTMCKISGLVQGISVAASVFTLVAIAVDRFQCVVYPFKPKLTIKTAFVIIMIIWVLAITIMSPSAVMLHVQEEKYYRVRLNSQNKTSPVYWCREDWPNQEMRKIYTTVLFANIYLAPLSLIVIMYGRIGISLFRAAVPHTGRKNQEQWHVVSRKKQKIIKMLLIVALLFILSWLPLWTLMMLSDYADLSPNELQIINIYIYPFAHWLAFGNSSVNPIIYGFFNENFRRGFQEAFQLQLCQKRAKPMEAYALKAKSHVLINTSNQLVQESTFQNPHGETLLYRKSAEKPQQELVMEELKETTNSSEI
The assay can be described thus: Receptor binding assay with [3H]-FFRFamide on CHO cell membranes expressing SF-hNPFFR2. As to conditions: [3H]-FFRF-NH2 radioligand, mean of at least two experiments; for Ki: read-out: Ki NPFF2.
Text: as §1, §2

We go through 22 compounds from patent EP2669276A1 (Université de Strasbourg, priority 2012, dated 2013).

T1 sequence (Q9GZQ6 whole entry): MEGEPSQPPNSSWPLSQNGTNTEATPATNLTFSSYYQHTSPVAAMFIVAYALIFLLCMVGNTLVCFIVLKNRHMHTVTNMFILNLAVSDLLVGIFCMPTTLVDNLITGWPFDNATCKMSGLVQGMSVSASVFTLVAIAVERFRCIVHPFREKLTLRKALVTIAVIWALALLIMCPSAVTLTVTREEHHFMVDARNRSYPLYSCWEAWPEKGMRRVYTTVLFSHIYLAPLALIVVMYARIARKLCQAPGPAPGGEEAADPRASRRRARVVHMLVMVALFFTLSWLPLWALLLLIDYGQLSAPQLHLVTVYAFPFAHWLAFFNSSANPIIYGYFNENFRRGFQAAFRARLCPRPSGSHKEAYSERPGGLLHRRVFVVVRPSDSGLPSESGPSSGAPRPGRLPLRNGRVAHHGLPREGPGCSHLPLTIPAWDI

For the compound `O=C(NCCc1ccccc1)[C@H](CCCN1CCC(Cc2ccccc2)CC1)NC(=O)C12CC3CC(CC(C3)C1)C2` [Compound 44, (2S)-2-(adamantan-1-ylformamido)-5-(4-benzylpiperidin-1-yl)-N-(2-phenylethyl)pentanamide], the inhibitory constant (Ki) on hNPFF1 was 603 ± 139 nM; on hNPFF2 it was 188 ± 6 nM.
In the case of `O=C(N[C@H](CCCCNCc1ccccc1)C(=O)NCCc1ccccc1)c1ccccc1-c1ccccc1` [Compound 7, (2R)-6-(benzylamino)-N-(2-phenylethyl)-2-[(2-phenylphenyl)formamido]hexanamide], the inhibition constant (Ki) on hNPFF1 amounted to 22 ± 4 nM; on hNPFF2, 605 ± 180 nM.
Consider `COc1ccc(-c2ccccc2C(=O)N[C@@H](CCCN2CCCCC2)C(=O)NCCCc2ccccc2)cc1` [Compound 29, (2S)-2-{[2-(4-methoxyphenyl)phenyl]formamido}-N-(3-phenylpropyl)-5-(piperidin-1-yl)pentanamide], for which the Ki at hNPFF1 worked out at 170 ± 70 nM. At hNPFF2, this compound returned an inhibition at 0.5 µM of 0% and an inhibition at 5 µM of 23 ± 5%.
The matching figures for `CN(CCC[C@H](NC(=O)c1ccccc1-c1ccccc1)C(=O)NCCc1ccccc1)CCc1ccccc1` [Compound 23, (2S)-5-[methyl(2-phenylethyl)amino]-N-(2-phenylethyl)-2-[(2-phenylphenyl)formamido]pentanamide]: 103 ± 15 nM, 22 ± 3% and 35 ± 8%.
For `COc1ccccc1CNCCC[C@H](NC(=O)c1ccccc1-c1ccccc1)C(=O)NCCc1ccccc1` [Compound 8, (2S)-5-{[(2-methoxyphenyl)methyl]amino}-N-(2-phenylethyl)-2-[(2-phenylphenyl)formamido]pentanamide], the Ki was 23 ± 4 nM on hNPFF1 and 103 ± 44 nM on hNPFF2.
Consider `CN(CCC[C@H](NC(=O)c1ccccc1-c1ccccc1)C(=O)NCCc1ccccc1)C1CCN(Cc2ccccc2)CC1` [Compound 38, (2S)-5-[(1-benzylpiperidin-4-yl)(methyl)amino]-N-(2-phenylethyl)-2-[(2-phenylphenyl)formamido]pentanamide], for which the inhibition constant (Ki) at hNPFF1 came to 85 ± 20 nM; at hNPFF2, 40 ± 23 nM.
For `CN1CCN(CCC[C@H](NC(=O)c2ccccc2-c2ccccc2)C(=O)NCCc2ccccc2)CC1` [Compound 34, (2S)-5-(4-methylpiperazin-1-yl)-N-(2-phenylethyl)-2-[(2-phenylphenyl)formamido]pentanamide], the Ki on hNPFF1 was found to be 232 ± 17 nM. On hNPFF2, this compound came in with an inhibition at 0.5 µM of 0% and an inhibition at 5 µM of 12 ± 5%.
Turning to `CN(CCC[C@H](NC(=O)c1ccccc1-c1ccccc1)C(=O)NCCc1ccccc1)Cc1cccc(Cl)c1` [Compound 18, (2S)-5-{[(3-chlorophenyl)methyl](methyl)amino}-N-(2-phenylethyl)-2-[(2-phenylphenyl)formamido]pentanamide], at hNPFF1, the inhibition at 0.5 µM was 8 ± 3% and the inhibition at 5 µM is 45 ± 2%. In addition, on hNPFF2, the inhibition at 0.5 µM came to 8 ± 5% and the inhibition at 5 µM was 40 ± 3%.
The matching figures for `COc1cccc(CN(C)CCC[C@H](NC(=O)c2ccccc2-c2ccccc2)C(=O)NCCc2ccccc2)c1` [Compound 22, (2S)-5-{[(3-methoxyphenyl)methyl](methyl)amino}-N-(2-phenylethyl)-2-[(2-phenylphenyl)formamido]pentanamide]: 7 ± 6%, 50 ± 2%, 6% and 39 ± 2%.
On hNPFF1, `O=C(N[C@@H](CCCNC1CCCCC1)C(=O)NCCc1ccccc1)c1ccccc1-c1ccccc1` [Compound 11, (2S)-5-(cyclohexylamino)-N-(2-phenylethyl)-2-[(2-phenylphenyl)formamido]pentanamide] came in with an inhibition at 0.5 µM of 49 ± 37% and an inhibition at 5 µM of 37 ± 1%. On hNPFF2, this compound yielded an inhibition at 0.5 µM of 8 ± 3% and an inhibition at 5 µM of 26 ± 8%.
On hNPFF1, `COc1ccccc1CN(C)CCC[C@H](NC(=O)c1ccccc1-c1ccccc1)C(=O)NCCc1ccccc1` [Compound 16, (2S)-5-{[(2-methoxyphenyl)methyl](methyl)amino}-N-(2-phenylethyl)-2-[(2-phenylphenyl)formamido]pentanamide] gave an inhibition at 0.5 µM of 9 ± 4% and an inhibition at 5 µM of 50 ± 10%. On hNPFF2, this compound came in with an inhibition at 0.5 µM of 6 ± 13% and an inhibition at 5 µM of 47 ± 1%.
In the case of `O=C(N[C@@H](CCCN1CCC(Cc2ccccc2)CC1)C(=O)NCCc1ccccc1)c1cccc(Cl)c1` [Compound 43, (2S)-5-(4-benzylpiperidin-1-yl)-2-[(3-chlorophenyl)formamido]-N-(2-phenylethyl)pentanamide], the Ki was determined as 441 ± 80 nM on hNPFF1 and 147 ± 2 nM at hNPFF2.
Turning to `O=C(N[C@@H](CCCN1CCC(Cc2ccccc2)CC1)C(=O)NCCc1ccccc1)c1ccccc1` [Compound 40, (2S)-5-(4-benzylpiperidin-1-yl)-N-(2-phenylethyl)-2-(phenylformamido)pentanamide], the inhibition at 0.5 µM on hNPFF1 worked out at 19 ± 3%; at hNPFF2, 5 ± 3%. Besides, the inhibition at 5 µM on hNPFF1 was determined as 32 ± 1%; at hNPFF2, 19 ± 1%.
In the case of `O=C(N[C@H](CCCN1CCCCC1)C(=O)NCCc1ccccc1)c1ccccc1-c1ccccc1` [Compound 27, (2R)-N-(2-phenylethyl)-2-[(2-phenylphenyl)formamido]-5-(piperidin-1-yl)pentanamide], the Ki on hNPFF1 was determined as 179 ± 64 nM. Further, on hNPFF2, the inhibition at 0.5 µM is 0% and at 5 µM the inhibition was 13 ± 8%.
On hNPFF1, `O=C(N[C@@H](CCCN1CCC(Cc2ccccc2)CC1)C(=O)NCCc1ccccc1)c1ccccc1Cl` [Compound 41, (2S)-5-(4-benzylpiperidin-1-yl)-2-[(2-chlorophenyl)formamido]-N-(2-phenylethyl)pentanamide] returned an inhibition at 0.5 µM of 0% and an inhibition at 5 µM of 54 ± 3%. At hNPFF2, this compound returned an inhibition at 0.5 µM of 0% and an inhibition at 5 µM of 41 ± 3%.
At hNPFF1, `CN(CCC[C@H](NC(=O)c1ccccc1-c1ccccc1)C(=O)NCCc1ccccc1)Cc1ccc(Cl)cc1` [Compound 20, (2S)-5-{[(4-chlorophenyl)methyl](methyl)amino}-N-(2-phenylethyl)-2-[(2-phenylphenyl)formamido]pentanamide] showed an inhibition at 0.5 µM of 14 ± 7% and an inhibition at 5 µM of 51 ± 2%. Moreover, at hNPFF2, at 0.5 µM the inhibition was 11 ± 3% and the inhibition at 5 µM stood at 39 ± 1%.
As for `O=C(N[C@@H](CCCN1CCc2ccccc2C1)C(=O)NCCc1ccccc1)c1ccccc1-c1ccccc1` [Compound 24, (2S)-N-(2-phenylethyl)-2-[(2-phenylphenyl)formamido]-5-(1,2,3,4-tetrahydroisoquinolin-2-yl)pentanamide], the figures for the Ki at hNPFF1 and on hNPFF2 were 500 ± 10 nM and 320 ± 10 nM, respectively.
On to `O=C(N[C@@H](CCCN1CCN(C(=O)c2ccccc2)CC1)C(=O)NCCc1ccccc1)c1ccccc1-c1ccccc1` [Compound 39, (2S)-5-(4-benzoylpiperazin-1-yl)-N-(2-phenylethyl)-2-[(2-phenylphenyl)formamido]pentanamide], for which the Ki at hNPFF1 worked out at 187 ± 9 nM. Further, on hNPFF2, the inhibition at 0.5 µM stood at 0% and the inhibition at 5 µM was 17%.
In the case of `O=C(N[C@@H](CCCNCc1ccc(Cl)cc1)C(=O)NCCc1ccccc1)c1ccccc1-c1ccccc1` [Compound 14, (2S)-5-{[(4-chlorophenyl)methyl]amino}-N-(2-phenylethyl)-2-[(2-phenylphenyl)formamido]pentanamide], the Ki at hNPFF1 turned out to be 45 ± 4 nM. On hNPFF2, the inhibition at 0.5 µM was 16 ± 2% and testing at 5 µM gave an inhibition of 54 ± 3%.
Take `O=C(N[C@@H](CCCNCc1cccc(Cl)c1)C(=O)NCCc1ccccc1)c1ccccc1-c1ccccc1` [Compound 13, (2S)-5-{[(3-chlorophenyl)methyl]amino}-N-(2-phenylethyl)-2-[(2-phenylphenyl)formamido]pentanamide]: on hNPFF1, the inhibitory constant (Ki) is 59 ± 14 nM. Moreover, at hNPFF2, at 0.5 µM the inhibition was 23 ± 17% and the inhibition at 5 µM was 67 ± 4%.
`O=C(C=C(c1ccccc1)c1ccccc1)N[C@@H](CCCN1CCC(Cc2ccccc2)CC1)C(=O)NCCc1ccccc1` [Compound 45, (2S)-5-(4-benzylpiperidin-1-yl)-2-(3,3-diphenylprop-2-enamido)-N-(2-phenylethyl)pentanamide]: on hNPFF1, the inhibition at 0.5 µM amounted to 10 ± 18% and the inhibition at 5 µM came to 12 ± 2%. Besides, at hNPFF2, the inhibition at 0.5 µM came out at 23 ± 25% and 5 µM produced 25 ± 19% inhibition.
Regarding `COc1ccc(-c2ccccc2C(=O)N[C@@H](CCCN2CCCCCC2)C(=O)NCCCc2ccccc2)cc1` [Compound 30, (2S)-5-(azepan-1-yl)-2-{[2-(4-methoxyphenyl)phenyl]formamido}-N-(3-phenylpropyl)pentanamide], the Ki came to 64 ± 32 nM at hNPFF1 and 76 ± 18 nM on hNPFF2.
